According to US5081264A, “Bioxanthracene derivatives” (Kyowa Hakko Kabushiki Kaisha, priority 1989, dated 1992):
Like-named read-outs stand apart in the source and are kept apart here.

What was measured:
[1] = system: nerve cells (cerebellum of a rat); assay: Protection of cultured nerve cells (cerebellum) against L-glutamic acid; type: cell-based; conditions: L-glutamic acid 100 μM; for viability at 5 µg/mL / viability at 1 µg/mL / viability at 10 µg/mL: Rattus norvegicus, cerebellum, read-out: survival ratio of the cells (SR); for viability at 5 µg/mL: test compound 5 μg/ml; for inhibition of the death of nerve cells induced by L-glutamic acid: cerebellum (Tables 4 and 5); for viability at 1 µg/mL: test compound 1 μg/ml; for viability at 10 µg/mL: test compound 10 μg/ml
Description: (§1) The septal area was taken out from the brain of a fetal rat. The cells were dispersed using trypsin and deoxyribonuclease and were cultured for one day on a Pit medium (Dulbecco modified Eagle medium or Ham F12 medium, commercial products of Nissui Seiyaku K. K., Japan) containing 5% horse serum and 5% fetal calf serum. After adding cytosine arabinoide (10μM) to the medium, the culturing was continued for 10 days.
(§2) L-glutamic acid (100 μM) and ES-242-1 were added to the cultured broth to measure the survival ratio of the nerve cells. For control purposes, a similar procedure was carried out with the exception that glutamic acid (100μM) and/or ES-242-1 were replaced by dimethylsulfoxide (DMSO) (0.5%). The cells which survived were counted by the fluorescence-dying method with reference to the Costa et al. method [Proc. Natl. Acad. Sci., U.S.A., 85, 7351-7355 (1988)].
(§3) The results shown in the following Table 3 were obtained in a manner similar to that described above except the cerebellum was used instead of the septal area. In the following tables, the term "GA" denotes L-glutamic acid (unit 100μM) and the term "SR" denote the survival ratio of the cells (%).
The results shown in the following Tables 4 and 5 were obtained by a procedure similar to that described in Experiment 1 above with the exception that the cerebellum of a rat and ES-242-2 or ES-242-5 were respectively used instead of the septal area and ES-242-1.

[2] = system: CAI area neurons of the hippocampus; assay: Protection of nerve cells from ischaemic injury; type: in vivo, Mongolian gerbils
Excerpt: Ischaemic injury of the nervous system was induced in the CAI area of the hippocampus of Mongolian gerbils by closing and reperfusing two cartoid arteries with reference to the Kirino et al method [Cerebral Nerve, Vol. 38, No. 12, 1157-1163 (1986)] as follows.
On each occasion, the test compound was suspended in a physiological solution of sodium chloride. The animal (body weight 60-70 g) was anesthetized with ether. The left and right common cartoid arteries were exposed through midcervical vertical skin incision and the anesthetic was discontinued. The cartoid arteries on both sides were occluded for 5 minutes using aneurism clips. Immediately after this, a given amount (100 mg/kg) of Compound ES-242-1 was given orally to the animal. One week after this, the animal was fixed by transcardic perfusion. Immediately after this, the brain was removed from the animal to prepare a sample of the histologic section containing the CIA area of the hippocampus. The number of normal cells of the CAI area neurons per 1 mm linear length was counted.
The above-mentioned treatment is hereinafter referred to as the ischaemic treatment.
For control purposes, a group of the animals were given a physiological solution of sodium chloride only, without ischaemic treatment. […]

[3] = biological target: N-methyl-D-aspartic acid receptor; assay: Binding activity to N-methyl-D-aspartic acid receptor ([3H]TCP binding in rat brain membranes); conditions: rat brain membranes (crushed cerebrum)
Description: The binding activity of Compounds ES-242 to N-methyl-D-aspartic acid receptor was measured as follows.
With reference to the modified method of Vignon et al [Brain Research, 280, 194-197 (1983)], the binding activity of ES-242 to N-[1-(2-thienyl) cyclohexyl]-3,4-[^3 H]piperidine ([^3 H]TCP) in rat brain membranes was measured by the use of a crushed cerebrum of a rat and expressed by IC50 viz. a concentration required for 50% inhibition of the binding ability to the sample.

[4] = Solubility; type: physicochemical
[5] = system: nerve cells (septal area of the brain of a fetal rat); assay: Protection of cultured nerve cells (septal area) against L-glutamic acid; type: cell-based; conditions: L-glutamic acid 100 μM
Description: Protection of cultured nerve cells
as §1, §2, §3

[6] = literature report; cited from earlier work
[7] = system: nervous system; conditions: literature report; cited from earlier work
[8] = system: N-methyl-D-aspartic acid receptors; conditions: literature report; cited from earlier work
[9] = literature report; cited from earlier work; remark: listed apart in the source
[10] = Table 4, control 95, GA alone 56
[11] = Table 5, control 88, GA alone 40

In the case of `COc1cc(OC)c2c(O)c3c(c(-c4c5c(c(O)c6c(OC)cc(OC)cc46)COC(C)C5OC(C)=O)c2c1)CC(C)OC3` (centres unmarked) [ES-242-1], the viability at 5 µg/mL ([1]; Table 3, control 90, GA alone 44) is reported as 75%, the “number of normal cells in average ± standard deviation (N)” value ([2]; 100 mg/kg oral immediately after 5 min occlusion, one week, n=5, normal control 100 ± 4.7, ischaemic control 0 ± 0) is reported as 24.4 ± 20.6 cells/mm and the “protecting activity to ischaemic injury of the nervous system” value ([2]; 100 mg/kg oral, gerbils) is reported as “exhibited a significant protecting activity”. For the same compound, the “IC50 (50% inhibition of [3H]TCP binding)” value [3] was 0.1 mg/L, the Solubility ([4]; methanol, acetone, ethyl acetate and chloroform) was “Readily soluble” and the Solubility ([4]; water and n-hexane) was “Insoluble”. For the same compound, the “inhibition of the death of nerve cells induced by L-glutamic acid” value (“inhibition of the death … by L-glutamic acid” for short) ([5]; septal area and cerebellum (Tables 2 and 3)) was “inhibited the death of the nerve cells”, the viability at 0.1 µg/mL ([5]; Rattus norvegicus, septal area, test compound 0.1 μg/ml, control 87, GA alone 5, read-out: survival ratio of the cells (SR)) was 23% and the viability at 0.5 µg/mL ([5]; Rattus norvegicus, septal area, test compound 0.5 μg/ml, control 87, GA alone 5, read-out: survival ratio of the cells (SR)) was 73%.
For `COc1cc(OC)c2c(O)c3c(c(-c4c5c(c(O)c6c(OC)cc(OC)cc46)COC(C)C5OC(C)=O)c2c1)C(OC(C)=O)C(C)OC3` (centres unmarked) [ES-242-2], the “inhibition of the death … by L-glutamic acid” value [1] was “inhibit the death of the nerve cells”, the viability at 1 µg/mL [1, 10] was 44% and the viability at 10 µg/mL [1, 10] was 88%. For the same compound, the “IC50 (50% inhibition of [3H]TCP binding)” value [3] was 1.9 mg/L, the viability at 5 µg/mL ([5]; Rattus norvegicus, septal area, test compound 5 μg/ml, control 87, GA alone 5, read-out: survival ratio of the cells (SR)) was 74% and the viability at 50 µg/mL ([5]; Rattus norvegicus, septal area, test compound 50 μg/ml, control 87, GA alone 5, read-out: survival ratio of the cells (SR)) was 74%.
With `COc1cc(OC)c2c(O)c3c(c(-c4c5c(c(O)c6c(OC)cc(OC)cc46)COC(C)C5OC(C)=O)c2c1)C(O)C(C)OC3` (centres unmarked) [ES-242-3] the “IC50 (50% inhibition of [3H]TCP binding)” value [3] was 1.8 mg/L.
For `COc1cc(OC)c2c(O)c3c(c(-c4c5c(c(O)c6c(OC)cc(OC)cc46)COC(C)C5O)c2c1)C(O)C(C)OC3` (centres unmarked) [ES-242-4], the “IC50 (50% inhibition of [3H]TCP binding)” value [3] was 14.6 mg/L.
In the case of `COc1cc(OC)c2c(O)c3c(c(-c4c5c(c(O)c6c(OC)cc(OC)cc46)COC(C)C5O)c2c1)CC(C)OC3` (centres unmarked) [ES-242-5], the “inhibition of the death … by L-glutamic acid” value [1] is reported as “inhibit the death of the nerve cells”, the viability at 1 µg/mL [1, 11] is reported as 68% and the viability at 5 µg/mL [1, 11] is reported as 73%. The viability at 10 µg/mL [1, 11] was 79% and the “IC50 (50% inhibition of [3H]TCP binding)” value [3] was 0.6 mg/L.
In the case of `COc1cc2c(-c3c(OC)c(C)c(O)c4c(O)c5c(cc34)C[C@](C)(O)CC5=O)c3c(c(O)c2c(O)c1C)C(=O)C[C@@](C)(O)C3` [Singueanol II], the anti-bacterial activity [6] is listed as “exhibit anti-aspartic and anti-bacterial activity”, the “capability of protecting the nervous system” value [7] is listed as “neither capable of protecting the nervous system” and the “antagonism against N-methyl-D-aspartic acid receptors” value [8] is listed as “nor antagnostic against N-methyl-D-aspartic acid receptors”. The anti-aspartic activity [9] was “exhibit anti-aspartic”.
